Measured values: US20250388571A1, “AMP-ACTIVATED PROTEIN KINASE MODULATOR COMPOUNDS AND USES THEREOF” (Biolexis Therapeutics, Inc., priority 2024, published 2025)
Entries after “also recorded” stand apart in the source; their conditions may differ.

Columns and labels:
[1] = system: Human white preadipocyte (HWP) cells; assay: Glucose uptake assay, human white preadipocyte cells; assay type: cell-based
Description: (§1) FIGS. 5-8 show results for glucose update assays in Human white preadipocyte (HWP) cells (Promocell, cat. No. C-12735) when treated with compound I-11 (FIG. 5), compound I-7 (FIG. 6), MK-8722 (FIG. 7), and PF-06409577 (FIG. 8). HWP cells (subcutaneous upper arm of obese patient) were starved for 3 hours in DMEM without FBS, treated with the components noted above in […] DMEM without FBS/glucose for 1 hour, and glucose uptake was detected using a glucose uptake kit (Promega). […] The bars show (from left to right) concentrations of 100 μM, 33 μM, 11 μM, 3.7 μM, 1.23 μM, 0.41 μM, 0.14 μM, 0.045 μM, 0.015 μM, 0.005 μM, 0 μM, and insulin.
as §1, with “9-12” for “5-8”, “9),” for “5),”, “10),” for “6),”, “11),” for “7),”, “12).” for “8).”, “(abdomen cells)” for “(subcutaneous upper arm of obese patient)”
(§2) Human skeletal myoblasts were obtained (Thermofisher; BYU) and cultured in DMEM/F12 medium with 10% FBS. For differentiation, 2% horse serum low glucose DMEM medium was employed for 72 hours. Human cardiomyocytes cells (HCM cells; Promocell) were cultured in myocyte growth medium (Promocell). Human preadipocyte HWP-c cells (Promocell) were obtained from upper arm of diabetic II donor. Human preadipocyte HWP-c cells (Promocell) were obtained from abdomen of diabetic II donor. For differentiating human preadipocytes, cells were cultured in preadipocyte growth medium to total confluency stage. The growth medium was replaced with preadipocyte differentiation medium for 72 hours, then changed to PromoCell adipocyte nutrition medium to complete the differentiation process. THLE-2 cells were cultured in BEGM from Lonza/Clonetics Corporation, Walkersville, MD 21793 (BEGM Bullet Kit; CC3170). HepG2, L6 and C2Cl2 cells were cultured in EMEM medium.
(§3) After differentiation myoblasts, preadipocyte cells were starved by removing the medium and adding 100 μL DMEM without serum. The medium was then replaced with 100 μL DMEM±1 μM insulin at indicated concentration of representative compounds without serum or glucose. The cells were then incubated for 1 hour at 37° C. in 5% CO2. The cells were then removed from the medium and 50 μL of 0.1 mM 2DG in PBS was added. Cells were incubated for 30 minutes at 25° C. 25 μL of Stop Buffer was added and samples were mixed. 25 μL of Neutralization Buffer was then added and mixed. 100 μL of 2DG6P Detection Reagent was then added and mixed. Samples were then incubated for 1 hour at 25° C. Luminescence was then recorded with 0.3-1 second integration on a luminometer.

[2] = PK oral bioavailability experiment, rat; assay type: in vivo, male Wistar rat
Description: A total of 18 male Wistar rats were allotted for the study. Animals were allotted in to 2 groups of 9 rat per each group. In each group, first set of three animals were used for PK study, next set of three and followed by other set of three animals were used for 0.5 h and 1 h brain, CSF, and blood collection purpose for intravenous and oral groups, respectively. On day of dosing all the animals were fasted overnight.
Approximately 0.3 mL of blood sample from each animal was collected via jugular vein at predetermined time points at 0.083 (only IV), 0.25, 0.5, 1, 2, 4, 6, 8 and 24 h intervals in pre-labeled Eppendorf tubes containing anticoagulant K2EDTA (20 μL per mL of blood). Blood sample was centrifuged at 5000 rpm for 10 min under refrigeration (2-4° C.) to obtain plasma. For brain and CSF uptake study, after 0.5 h and 1 h CSF and whole brain was withdrawn, and brain tissue was homogenized as a terminal sampling. Blood samples were centrifuged under refrigeration (2-4° C.) within 0.5 h to obtain plasma. The separated plasma samples were collected in pre labeled tubes within 60 min of separation and stored at −20° C. up to 24 h. Post 24 h sample collection, all plasma samples were transferred to deep freezer custodian to store below or at −70° C. till shipment.
Brain tissues were blotted and dried and then transferred to 15 mL falcon tubes. Initially all tissue samples were stored at −20±3° C. Later, all brain tissue samples were homogenized with PBS at 1:4 ratio and the Brain homogenate was transferred to Deep freezer (−70±10° C.) and stored until bioanalysis.
The PK parameters were evaluated using Phoenix WinNonlin® Ent-Version 8.3 by non-compartmental analysis.

[3] = system: human hepatocytes-THLE-2 cells; assay: Glucose uptake assay, THLE-2 cells; assay type: cell-based
Description: FIGS. 13-16 show results for glucose update assays in THLE-2 cells (ATCC, cat. No. CRL-2706) when treated with compound I-11 (FIG. 13), compound I-7 (FIG. 14), MK-8722 (FIG. 15), and PF-06409577 (FIG. 16). The THLE-2 cells were starved for 3 hours in high glucose DMEM without FBS, treated with the components noted above in DMEM without FBS/glucose for 1 hour, and glucose uptake was detected using a glucose uptake kit (Promega). The bars show (from left to right) concentrations of 100 μM, 33 μM, 11 μM, 3.7 μM, 1.23 μM, 0.41 μM, 0.14 μM, 0.045 μM, 0.015 μM, 0.005 μM, 0 μM, and insulin.
as §2, §3

in vivo = assay type: in vivo; conditions: dog
Description: A total of 3 animals were segregated in to one group and each animal received oral dose followed by intravenous infusion (15 minutes) as a cross over design with 7 days of no dose interval between periods. […] Similarly, in period 2 after 7 days of no dose interval, animals were received intravenous infusion for 15 min at a dose of 1 mg/kg via saphenous vein at a dose volume of 1 mL/kg, each dog was observed after administration of the test item for presence or absence of clinical signs.
A total of 11 time points for oral and 12 blood samples for IV per each animal were collected, approximately 1 mL were collected from each dog in pre-labeled Eppendorf tubes containing 20 μL/mL of 200 mM K2 EDTA. Blood was withdrawn at scheduled time points via cephalic vein in pre-labelled Eppendorf tubes. The pre-dose blood sample was collected before to drug administration. Post dose samples were collected within stipulated time. The blood samples were kept on crushed ice to maintain the temperature until centrifugation. Plasma was separated and stored under −70° C. […] The PK parameters were evaluated using Phoenix WinNonlin® Ent-Version 8.3 by non-compartmental analysis.

With `O=c1[nH]c(-c2c[nH]c3cc(F)c(-c4ccc(C5(O)CCC5)cc4)c(F)c23)no1` [Compound I-11, 3-(4,6-difluoro-5-(4-(1-hydroxycyclobutyl)phenyl)-1H-indol-3-yl)-1,2,4-oxadiazol-5(4H)-one] the “dose dependence of glucose uptake (printed: activates insulin)” value ([1]; HWP cells, subcutaneous upper arm of obese patient, 100 μM to 0.005 μM, 1 hour) was “dose dependent manner”, the glucose uptake ([1]; human adipocyte cells / HWP-c cells, donor site not stated) was “induced glucose uptake; also recorded: dosage-dependent manner” and the “systemic exposure following oral administration” value ([2]; 5 mg/kg oral) was “low systemic exposure”. The “concentrations in brain tissue” value ([2]; 0.5 h and 1 h) was “no concentrations in brain tissue”, the bioavailability ([2]; male, Wistar, plasma, 5 mg/kg oral vs 1 mg/kg intravenous) was 6% and the glucose uptake [3] was “induced glucose uptake; also recorded: dosage-dependent manner”. The “systemic exposure, oral administration” value (in vivo; 5 mg/kg oral) was “low systemic exposure” and the bioavailability (in vivo; male, Beagle, plasma, 5 mg/kg oral compared with intravenous infusion (1 mg/kg)) was 5.27 ± 2.94%.
